Holding throughout (test): NCI tumour cell line growth inhibition, 48 h
Assay [1] deals with NCI-H23 lung.
Assay [2] concerns HOP-62 NSCLC.
Assay [3] concerns DU-145 prostate.
In assay [4] the test system is SN12C renal.
The subject of assay [5] is HCC-2998 colon.
For assay [6], the system named is UACC-257 melanoma.
Assay [7] deals with SF-539 CNS.
Assay [8] concerns A549 NSCLC.
Assay [9] has as its system HL-60(TB) leukemia.
Assay [10] concerns EKVX NSCLC.

Several values for one entry are separate records, joined by “and”; a condition that tells them apart may be missing. Equal entries are not always repeated.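 Results reflect a 48-hour exposure of cells in 96-well plates to compound at five concentrations. GI50 = concentration required for 50% inhibition of growth. TGI marks complete inhibition of growth.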 Bounds are passed on as bounds.

For the compound `Cc1cc2nc(-c3c(F)cccc3Cl)n(Cc3c(F)cccc3Cl)c2cc1C`, the GI50 in assay [1] was 9.49 µM; in [2], 13.9 µM; in [3], 16.1 µM; in assay [4], 11.7 µM; in [5], 11.2 µM; in [6], 16.4 µM. The GI50 in [7] was 17.3 µM; in assay [8] it was 11.7 µM. Further, the TGI in assay [1] is 22.9 µM; in [2], 29.1 µM; in assay [3], 41.4 µM; in assay [4] it was 24.2 µM; in [5], 23.7 µM; in [6], 38.3 µM. Moreover, the TGI in assay [7] was determined as 34.8 µM; in [8] it was 33.1 µM.

On to `NC(=O)c1ccc(N(C(N)=O)c2c(F)cccc2F)nc1-c1ccc(F)cc1F`, for which the GI50 in [1], in assay [2], in assay [3], in assay [4], in assay [9] and in assay [5] was above 100 µM each time. For the same compound, the GI50 in [6], in assay [7] and in assay [8] was above 100 µM each time. For the same compound, the TGI in assay [1], in assay [2], in assay [3], in assay [4], in [9] and in [5] was above 100 µM each time. Also, the TGI in assay [6], in [7] and in assay [8] was above 100 µM each time.

Turning to `COc1cc2c(cc1OCCCOc1ccc(-c3nc4ccc(N5CCN(C)CC5)cc4[nH]3)cc1)N=C[C@@H]1CCCN1C2=O`, the GI50 in assay [1], in [2], in assay [3], in assay [10], in [4] and in assay [9] was below 0.01 µM each time. Moreover, the GI50 in assay [7] and in assay [8] was below 0.01 µM throughout. The TGI was below 0.01 µM in assay [1]; below 0.01 µM in assay [2]; 6.98 µM in assay [3]; below 0.01 µM in [10]; below 0.01 µM in assay [4]; below 0.01 µM in [9]. The TGI in assay [7] is below 0.01 µM; in assay [8], below 0.0222 µM.

As for `Cc1ccc(-c2n[nH]c(=O)c3noc(-c4ccc(C)cc4)c23)cc1`, the GI50 in assay [1] was 4.86 µM; in [2], 0.835 µM; in assay [3], 2.82 µM; in assay [4] it was 1.4 µM; in assay [9], 0.31 µM; in assay [5], 3.89 µM. For the same compound, the GI50 in assay [6] was 5.87 µM; in assay [7], 0.787 µM; in assay [8] it was 0.74 µM. Moreover, the TGI is above 100 µM in [1]; 13.4 µM in assay [2]; 15.2 µM in assay [3]; above 100 µM in [4]; above 100 µM in assay [9]; above 100 µM in [5]. In addition, the TGI in assay [6] is above 100 µM; in [7], 4.14 µM; in assay [8] it was above 100 µM.

For the compound `Nc1nc(N)c2c(n1)NC(c1sc(Cl)nc1Cl)CC(c1ccc3c(c1)OCO3)=N2` (stereo unspecified), the GI50 was 8.87 µM in [1]; 5.32 µM in assay [2]; 8.45 µM in [3]; 6.55 µM in [4]; 3.61 µM in assay [9]; 6.11 µM in assay [5]. For the same compound, the GI50 in assay [6] was 14.6 µM; in [7], 2.22 µM; in [8] it was 6.47 µM. In addition, the TGI came out at 38.2 µM in assay [1]; 22.3 µM in [2]; 34.4 µM in [3]; 22.3 µM in [4]; 13.3 µM in assay [9]; 20 µM in [5]. The figures for the TGI in assay [6], in assay [7] and in assay [8] were 41.1 µM, 8.24 µM and above 100 µM, respectively.

Turning to `O=C(Cc1ccccc1)NN1C(=O)/C(=C\c2ccccc2O)SC1=Nc1ccccc1`, the TGI in assay [1], in assay [2], in [3], in assay [10], in assay [4] and in assay [5] was above 100 µM throughout. Besides, the TGI in assay [6], in assay [7] and in assay [8] was above 100 µM in each case.

As to `CCCOC(=O)C1C2CCC(O2)C1C(=O)O` (stereo unspecified), the TGI in [1], in assay [2], in assay [3], in assay [10], in assay [4] and in [9] was above 100 µM throughout. The TGI in assay [6] and in assay [8] was above 100 µM each time.

Turning to `COc1ccc2c(c1)c1c3n2CCNN=C3CCC1`, the TGI was above 100 µM in [1]; above 100 µM in [2]; above 100 µM in assay [10]; above 100 µM in assay [4]; above 71.4 µM in [9]; above 100 µM in [5]. Moreover, the TGI in assay [6], in [7] and in assay [8] was above 100 µM each time.

For `CCCCNC1=C(C(=O)OCC)/C(=N/NC(=O)c2ccccc2O)CO1`, the TGI in assay [1], in assay [2], in [10], in assay [4], in assay [9] and in assay [5] was above 100 µM each time. For the same compound, the TGI in [6] is 14.2 µM; in [7], above 100 µM; in assay [8], above 100 µM.

For `CC(=O)Nc1ccc(-c2nnc(SCC(=O)Nc3ccc(Cl)cc3)o2)cc1`, the TGI in [1] is 18.2 µM; in assay [2], 39.7 µM; in [10] it was 38.4 µM; in [4], 27.5 µM; in [9] it was 40.1 µM; in assay [5], 37.5 µM. The TGI in assay [6] amounted to 40.9 µM; in assay [7] it was 30.2 µM; in assay [8], 32 µM.

For the compound `NS(=O)(=O)c1ccc(NC(=O)c2cccc(NC3=C(Cl)C(=O)N(Cc4ccccc4)C3=O)c2)cc1`, the GI50 in assay [2] was 31.5 µM; in [3] it was 11.1 µM; in assay [10], 17.6 µM; in assay [4], 11.6 µM; in assay [9], 2.02 µM; in assay [6], 14.7 µM. For the same compound, the results for the GI50 in [7] and in assay [8] were 11.3 µM and 21.2 µM, respectively. For the same compound, the TGI was above 100 µM in assay [2]; 25.1 µM in assay [3]; 38.8 µM in [10]; 25.9 µM in assay [4]; 6.01 µM in assay [9]; 29.4 µM in assay [6]. Further, the TGI in assay [7] was 26.7 µM; in assay [8], 52.3 µM.

As to `CCCCCCCCCCCCCCCCCC(=O)NCC(COP(=O)(O)O)OCC` (stereo unspecified), the TGI was 30.1 µM in assay [1]; 54.5 µM in [2]; above 100 µM in assay [10]; 46.4 µM in assay [4]; above 100 µM in assay [9]; above 100 µM in assay [5]. Further, the TGI in [6], in assay [7] and in [8] was above 100 µM each time.

`NNC(=O)C(O)C(O)C(=O)NN` (stereo unspecified): the TGI in assay [1], in [2], in assay [3], in [10], in [4] and in assay [5] was above 100 µM in each case. The TGI in [6] and in [8] was above 100 µM each time.

As to `Cc1ccc(/C=N/NS(=O)(=O)c2ccccc2)c(C)c1`, the TGI in assay [1], in assay [2], in [10], in assay [4], in [9] and in assay [5] was above 100 µM each time. Besides, the TGI in [6], in assay [7] and in [8] was above 100 µM throughout.

Regarding `Cc1cc(Nc2nc(-c3ccncc3)nc3ccccc23)n[nH]1`, the GI50 in assay [2] was 11 µM; in assay [3], 24.2 µM; in assay [4], 4.55 µM; in assay [9], 10.7 µM; in [5], 29.6 µM; in [6], 48 µM. Moreover, the values for the GI50 in [7] and in [8] were 3.83 µM and 3.59 µM, respectively. Further, the TGI in assay [2], in assay [3], in assay [4], in assay [9], in assay [5] and in assay [6] was above 100 µM each time. Also, the TGI in [7] and in assay [8] was above 100 µM each time.

As to `Cc1ccc(S(=NS(=O)(=O)c2ccc(C)cc2)c2ccc(C)cc2)cc1`, the TGI in assay [1], in assay [2], in assay [3], in assay [10], in assay [4] and in assay [9] was above 100 µM throughout. Further, the TGI in assay [6], in [7] and in assay [8] was above 100 µM throughout.

Take `CC(C)[Si](OCC1CC(C#N)OC(C)(C)O1)(C(C)C)C(C)C` (stereo unspecified): the TGI was 65.8 µM in [1]; 44.3 µM in assay [2]; 66 µM in assay [10]; above 100 µM in [4]; 29.3 µM in assay [9]; 38.4 µM in [5]. The TGI in assay [6] was 42.7 µM; in assay [7], 79 µM; in [8], above 100 µM.

On to `Cc1ccc2nc(NC(=O)C(=O)CC(=O)c3cccc4ccccc34)sc2c1`, for which the TGI is above 100 µM in assay [1]; 56.9 µM in assay [2]; above 100 µM in assay [10]; above 100 µM in [4]; above 100 µM in assay [9]; above 100 µM in assay [5]. The TGI is 82.2 µM in assay [6], 61.6 µM in assay [7] and above 100 µM in assay [8].

With `Cc1c2ccncc2c(C)c2c1[nH]c1ccc(Cl)cc12`, the GI50 in [1] was 2.99 µM; in [2], 2.66 µM; in [10] it was 3.9 µM; in [4], 1.41 µM; in assay [9] it was 2.62 µM; in assay [5], 2.34 µM. Also, the GI50 was 5.39 µM and 2.34 µM in assay [6]; 2.09 µM in assay [7]; 3.27 µM and 3.56 µM in assay [8]. Also, the TGI in assay [1] was 11.2 µM and 15 µM; in assay [2], 13.9 µM and 9.86 µM; in assay [10] it was 12.6 µM and 19.3 µM; in assay [4] it was 10.1 µM and 7.46 µM; in assay [5], 19.3 µM and 13.9 µM; in assay [6], 12 µM and 12.8 µM. In addition, the TGI in [7] was 6.68 µM and 7.97 µM; in [8] it was 11.2 µM and 15.2 µM.

`O=C1C=Cc2ncccc2C1=O`: the TGI in assay [1] was 39.6 µM; in assay [2], above 82.9 µM; in [10], 47.5 µM; in assay [4], 48.9 µM; in assay [9] it was 36.1 µM; in assay [5] it was above 61.6 µM. In addition, the figures for the TGI in assay [6], in assay [7] and in assay [8] were 35.1 µM, 40.5 µM and above 67.6 µM, respectively.

As to `CCN(CC)Cc1cc(Nc2c3ccccc3nc3cc(Cl)ccc23)ccc1O`, the GI50 in [2] was 1.73 µM; in assay [3], 2.63 µM; in [10] it was 2.26 µM; in assay [4], 1.05 µM; in assay [6], 1.9 µM; in assay [7], 2.19 µM. In [8], the GI50 is 1.36 µM. The TGI in assay [2] is 3.16 µM; in [3], 9.69 µM; in assay [10], 5.99 µM; in [4], 2.67 µM; in assay [6], 3.41 µM; in assay [7] it was 4.58 µM. In [8], this compound registered a TGI of 4.26 µM.

In the case of `Cc1cc(Br)cc(C)c1NC(=O)C(=O)Nn1c(=S)[nH]c2ccccc2c1=O`, the TGI in assay [1], in [2], in [10], in assay [4], in assay [9] and in [5] was above 100 µM in each case. For the same compound, the TGI in [6], in assay [7] and in [8] was above 100 µM throughout.

With `O=C(/C=C/c1ccccc1)CCC1C(=O)NC(=S)NC1=O`, the TGI in assay [1], in assay [3], in assay [4], in assay [5], in [6] and in [7] was above 100 µM throughout. In assay [8], this compound had a TGI above 100 µM.

Values taken from PubChem BioAssay (NCI).
